Source: patent publication US20140275539A1, “STABILIZATION OF RADIOIODINATED AND ASTATINATED PHARMACEUTICALS AND IMAGING AGENTS” (priority 2013, published 2014)

Legend:
[1] = DFT calculation of C—I bond dissociation energy (B3LYP/6-31G(d,p)/MIDI!, Gaussian 03); settings: estimated from the DFT data, compound not covered by the calculations
Procedure: Density Functional Theory (DFT) calculations performed on a variety of model structures strongly support the novelty and uniqueness of this approach. […] Calculations were performed with the Gaussian 03 suite of programs.
Table 2 summarizes results of density functional theory calculations (B3LYP/6-31G(d,p)/MIDI!, thermal and zero point energy corrected) for compounds 1, 7, and 8, showing the dissimilar impact of ortho-chlorine substitution on the strength of the C—I bond. […] Chlorine substitution results in significant C—I bond weakening compared to iodobenzene.
Table 3 depicts the results of density functional theory calculations for compounds 1, 5, and 9-14 (B3LYP/SDD for astatobenzenes, B3LYP/6-31G(d,p)/MIDI! for the iodobenzenes, and B3LYP/6-31G(d,p) for 11-14; thermal and zero point energy corrected) showing how the effect of ortho fluorine substitution falls off as the bond strength of the C—X (where X=halogen) bond increases.
Table 4 depicts results of DFT calculations (B3LYP/6-31G(d,p)/MIDI! for compounds 15-22; thermal and zero point energy corrected) showing how the effect of ortho fluorine applies to heterocyclic systems.
Table 5 depicts results of density functional theory calculations (B3LYP/6-31G(d,p)/MIDI!; thermal and zero point energy corrected) for compounds 23-34, showing how the effect of ortho fluorine substituents applies to five-membered ring heterocycles. […]

[2] = more cytotoxic than ^123I-MIBG; cited from earlier work

Row | Structure (SMILES) | C—I bond energy increase over the derivative in which the fluorine substituents are replaced by hydrogen atoms [1] | cytotoxicity relative to ^123I-MIBG [2]
1 | N[C@@H](Cc1cc(I)c(Oc2ccc(F)c(I)c2F)c(I)c1)C(=O)O | approximately 2.5 kcal/mol | –
2 | N=C(N)NCc1cccc([211At])c1 [^211At-MIBG] | – | approximately 1000 times
